Laboratory results: US20130323284A1, “USE OF mTOR INHIBITORS TO TREAT BACTERIAL INFECTION” (JAZZYA INVESTMENTS, priority 2012, published 2013)

System: CYLD
Experiment: Immunoblot analysis of CYLD levels in Klebsiella pneumoniae infected cells
Assay type: cell-based
Conditions: U0126 10 mM; infected for 3 h; versus vehicle control
Method: An immunoblot analysis of CYLD levels in Klebsiella pneumoniae infected cells for 3 h in the presence of vehicle control (Kp) or PI3K inhibitor (LY294002, […]), AKT inhibitor ([…]), ERK inhibitor (U0126, […]) is shown. Membranes were reprobed for tubulin as a loading control.

## N#CC(=C(/N)Sc1ccccc1N)/C(C#N)=C(\N)Sc1ccccc1N [U0126]
  Klebsiella pneumoniae induced production of CYLD in the presence of inhibitor: PI3K-AKT-ERK dependent manner
